Measured values: patent publication US20260125374A1, “PI3K-ALPHA INHIBITORS AND METHODS OF MAKING AND USING THE SAME” (Relay Therapeutics, Inc., priority 2021, published 2026)

Columns and labels:
Assay type in all cases: physicochemical
[1] = Salt screening (XRPD, chiral purity of hits); settings: for Chiral purity of salt screening solid: slurry
Protocol: Based on the pKa of I-1 free form, 23 counter ions were selected as salt/cocrystal forming agents. Methanol, acetone and isopropyl acetate were used as screening solvents. 1.0 equivalent of selected counter ions/coformers was applied for salt screening. Slurry equilibration, slow evaporation and anti-solvent addition were used as crystallization methods. In total, about 70 screening experiments were conducted.
About 50 mg of I-1 Form A were added to a suitable amount of solvent and 1.0 equivalent of counter ions were added under stirring at 50° C. for 2 hours and then at 25° C. for at least 12 hours. MeOH, acetone and IPAc were used as screening solvents.
Obtained suspensions were taken out and centrifuged. Solids obtained were analyzed by XRPD and salt screening results were summarized in Table 5.1, Table 5.2, and Table 5.3.

[2] = Solution stability at 25° C.
Protocol: Solution stability of I-1 Form A and I-3 Form A was investigated in methanol and THF/ACN (2:1, v/v) at 25° C. Target concentration is 4 mg/mL.
Accurate 4 mg of I-1 Form A, 5.13 mg of I-3 Form A was weighed into a 8 mL glass vial, respectively. The salt amount used is equivalent to 4 mg anhydrous free form.

[3] = Behavior under compression
Protocol: About 20 mg of I-1 Form A was compressed for 5 minutes at 2 MPa, 5 MPa and 10 MPa with a hydraulic press. XRPD characterization was performed to investigate the polymorphic behavior under compression.
About 20 mg of Form A was compressed for 5 minutes at 2 MPa, 5 MPa and 10 MPa with a hydraulic press. XRPD characterization was performed to investigate the polymorphic behavior under compression.

[4] = 1.0 equiv. naphthalene-1,5-disulfonic acid, MeOH
[5] = 1.0 equiv. naphthalene-1,5-disulfonic acid, MeOH/water(9:1, v/v)
[6] = 1.0 equiv. naphthalene-1,5-disulfonic acid, MeOH, dried at 50° C. for 21 h
[7] = crystalline hits of salt screening, listed as I-1 Form A
[8] = 25° C., MeOH, 0 h, listed as I-1 Form A
[9] = 25° C., MeOH, 6 h, listed as I-1 Form A
[10] = 25° C., MeOH, 24 h, listed as I-1 Form A
[11] = 25° C., THF/ACN(2:1, v/v), 0 h, listed as I-1 Form A
[12] = 25° C., THF/ACN(2:1, v/v), 6 h, listed as I-1 Form A
[13] = 25° C., THF/ACN(2:1, v/v), 24 h, listed as I-1 Form A

## N#Cc1c(-c2cc(NC(=O)c3cc(F)cc(C(F)(F)F)c3)c3c(c2)C(=O)N[C@H]3c2cc(F)ccc2Cl)ccc2ncnn12 [Compound I-1, (R)-N-(3-(2-chloro-5-fluorophenyl)-6-(5-cyano-[1,2,4]triazolo[1,5-a]pyridin-6-yl)-1-oxoisoindolin-4-yl)-3-fluoro-5-(trifluoromethyl)benzamide]
[1]; 1.0 equiv. isonicotinamide, MeOH
  Salt screening result (slurry crystallization): − (I-1 Form A) (Free form, counter ions, or physical mixtures)
[1]; 1.0 equiv. maleic acid, Acetone
  Salt screening result (slurry crystallization): thin suspension
[1]; 1.0 equiv. maleic acid, Acetone/MTBE
  Salt screening result (anti-solvent): −(I-1 Form B) (Free form, counter ions, or physical mixtures)
[1]; 1.0 equiv. maleic acid, Isopropyl acetate
  Salt screening result (slurry crystallization): − (I-1 Form A) (Free form, counter ions, or physical mixtures)
[1]; 1.0 equiv. maleic acid, MeOH
  Salt screening result (slurry crystallization): − (I-1 Form A) (Free form, counter ions, or physical mixtures)
[1]; 1.0 equiv. malonic acid, Acetone
  Salt screening result (slurry crystallization): thin suspension
[1]; 1.0 equiv. malonic acid, Acetone/MTBE
  Salt screening result (anti-solvent): −(I-1 Form B) (Free form, counter ions, or physical mixtures)
[1]; 1.0 equiv. malonic acid, Isopropyl acetate
  Salt screening result (slurry crystallization): − (I-1 Form A) (Free form, counter ions, or physical mixtures)
[1]; 1.0 equiv. malonic acid, MeOH
  Salt screening result (slurry crystallization): − (I-1 Form A) (Free form, counter ions, or physical mixtures)
[1]; 1.0 equiv. methanesulfonic acid, Acetone
  Salt screening result (slurry crystallization): thin suspension
[1]; 1.0 equiv. methanesulfonic acid, IPAc/MTBE
  Salt screening result (anti-solvent): thin suspension
[1]; 1.0 equiv. methanesulfonic acid, Isopropyl acetate
  Salt screening result (slurry crystallization): thin suspension
[1]; 1.0 equiv. naphthalene-1,5-disulfonic acid, Acetone
  Salt screening result (slurry crystallization): thin suspension
[1]; 1.0 equiv. naphthalene-1,5-disulfonic acid, Isopropyl acetate, 3 days
  Salt screening result (slurry crystallization): 3 days: AF;
[1]; 1.0 equiv. naphthalene-1,5-disulfonic acid, Isopropyl acetate, for another 3 days
  Salt screening result (slurry crystallization): 3 days: AF
[1]; [4]
  Salt screening result (slurry crystallization): + (I-1 Form A ) (Salt hits)
  Chiral purity of salt screening solid: Chiral purity: 100%
[1]; [5]
  Salt screening result (slurry crystallization): − (physical mixtures of (Free form, counter ions, or physical mixtures)
  Chiral purity of salt screening solid: Chiral purity: 99.3%
[1]; [6]
  Crystallinity of salt screening solid: low crystallinity
  Chiral purity of salt screening solid: Chiral purity: 100%
[1]; 1.0 equiv. naphthalene-2-sulfonic acid, Isopropyl acetate
  Salt screening result (slurry crystallization): thin suspension
[1]; 1.0 equiv. nicotinamide, Acetone
  Salt screening result (slurry crystallization): thin suspension
[1]; 1.0 equiv. nicotinamide, Acetone/MTBE
  Salt screening result (anti-solvent): −(I-1 Form B) (Free form, counter ions, or physical mixtures)
[1]; 1.0 equiv. nicotinamide, Isopropyl acetate
  Salt screening result (slurry crystallization): − (physical mixtures (Free form, counter ions, or physical mixtures)
[1]; 1.0 equiv. nicotinamide, MeOH
  Salt screening result (slurry crystallization): − (I-1 Form A (Free form, counter ions, or physical mixtures)
[1]; 1.0 equiv. nicotinic acid, Acetone
  Salt screening result (slurry crystallization): − (physical mixtures (Free form, counter ions, or physical mixtures)
[1]; 1.0 equiv. nicotinic acid, Isopropyl acetate
  Salt screening result (slurry crystallization): − (physical mixtures (Free form, counter ions, or physical mixtures)
[1]; 1.0 equiv. nicotinic acid, MeOH
  Salt screening result (slurry crystallization): − (physical mixtures (Free form, counter ions, or physical mixtures)
[1]; 1.0 equiv. phosphoric acid, Acetone
  Salt screening result (slurry crystallization): thin suspension
[1]; 1.0 equiv. phosphoric acid, Acetone/MTBE
  Salt screening result (anti-solvent): −(I-1 Form B) (Free form, counter ions, or physical mixtures)
[1]; 1.0 equiv. phosphoric acid, Isopropyl acetate
  Salt screening result (slurry crystallization): − (I-1 Form A) (Free form, counter ions, or physical mixtures)
[1]; 1.0 equiv. phosphoric acid, MeOH
  Salt screening result (slurry crystallization): − (I-1 Form A) (Free form, counter ions, or physical mixtures)
[1]; 1.0 equiv. sodium hydroxide, Acetone
  Salt screening result (slurry crystallization): thin suspension
[1]; 1.0 equiv. sodium hydroxide, Isopropyl acetate, for another 3 days
  Salt screening result (slurry crystallization): another 3 days: AF
[1]; 1.0 equiv. sodium hydroxide, MeOH
  Salt screening result (slurry crystallization): clear solution
[1]; 1.0 equiv. sulfuric acid, Acetone
  Salt screening result (slurry crystallization): thin suspension
[1]; 1.0 equiv. sulfuric acid, Acetone/MTBE
  Salt screening result (anti-solvent): thin suspension
[1]; 1.0 equiv. sulfuric acid, Isopropyl acetate
  Salt screening result (slurry crystallization): thin suspension
[1]; 1.0 equiv. sulfuric acid, MeOH
  Salt screening result (slurry crystallization): − (I-1 Form A) (Free form, counter ions, or physical mixtures)
[1]; 1.0 equiv. theobromine, Acetone
  Salt screening result (slurry crystallization): − (physical mixtures (Free form, counter ions, or physical mixtures)
[1]; 1.0 equiv. theobromine, Isopropyl acetate
  Salt screening result (slurry crystallization): − (physical mixtures (Free form, counter ions, or physical mixtures)
[1]; 1.0 equiv. theobromine, MeOH
  Salt screening result (slurry crystallization): − (physical mixtures (Free form, counter ions, or physical mixtures)
[1]; 1.0 equiv. theophylline, Acetone
  Salt screening result (slurry crystallization): − (physical mixtures (Free form, counter ions, or physical mixtures)
[1]; 1.0 equiv. theophylline, Isopropyl acetate
  Salt screening result (slurry crystallization): − (physical mixtures (Free form, counter ions, or physical mixtures)
[1]; 1.0 equiv. theophylline, MeOH
  Salt screening result (slurry crystallization): − (physical mixtures (Free form, counter ions, or physical mixtures)
[1]; Free form, Acetone
  Salt screening result (slurry crystallization): − (I-1 Form A) (Free form, counter ions, or physical mixtures)
[1]; Free form, Isopropyl acetate
  Salt screening result (slurry crystallization): − (I-1 Form A) (Free form, counter ions, or physical mixtures)
[1]; Free form, MeOH
  Salt screening result (slurry crystallization): − (I-1 Form A) (Free form, counter ions, or physical mixtures)
[1]; [7]
  Chiral purity (by HPLC): 99.2%
  Crystallinity (By XRPD): High
[2]; [8]
  Chemical purity: 98.9%
  Chiral purity: 98.9%
[2]; [9]
  Chemical purity: 99.0%
  Chiral purity: 98.9%
[2]; [10]
  Chemical purity: 99.1%
  Chiral purity: 98.9%
[2]; [11]
  Chemical purity: 98.6%
  Chiral purity: 98.9%
[2]; [12]
  Chemical purity: 98.7%
  Chiral purity: 98.9%
[2]; [13]
  Chemical purity: 99.0%
  Chiral purity: 98.9%
[2]; before dissolution, listed as I-1 Form A
  Initial chiral purity: Initial chiral purity: 99.0%
[2]; methanol and THF/ACN (2:1, v/v), 25° C., 4 mg/mL
  racemization in solution: no racemization
[2]; methanol and THF/ACN (2:1, v/v), 25° C., at least 24 h, 4 mg/mL, listed as I-1 Form A
  chemical stability in solution: chemically stable
[3]
  XRPD peaks after compression: slightly broader
[3]; 5 minutes at 2, 5 and 10 MPa
  form change under compression (XRPD): no form change
[3]; compressed for 5 minutes at 2 Mpa
  XRPD: No form change, but peaks became slightly broader
[3]; compressed for 5 minutes at 5 Mpa
  XRPD: No form change, but peaks became slightly broader
[3]; compressed for 5 minutes at 10 Mpa
  XRPD: No form change, but peaks became slightly broader
